Measured values reported in a melting point compilation (Tetko et al.; mined from patent text by program, amines drawn as free bases though some values may be those of a salt).

Row | SMILES | melting point
1 | COc1cc(NC(=O)c2c(Cl)cccc2Cl)c2ncccc2c1 | 180 to 182 °C
2 | O=C(CNC(=O)c1ccc([N+](=O)[O-])cc1F)OCc1ccccc1 | 104 to 106 °C
3 | O=C(O)COc1ccc2c(-c3ccccn3)noc2c1Cl | 255 to 256 °C
4 | Cc1ccc(S(=O)(=O)OCCN2CN(C)C(=S)N(c3ccc(C)cc3C)C2)cc1 | 82 to 85 °C
5 | CCOC(=O)C1=C(C)NC(c2cnc(Cl)s2)=NC1c1ccc(F)cc1Cl (configuration not stated) | 159 to 162 °C
6 | O=C(Nc1ccccc1)O[C@@H]1CN2CCC1CC2 | 129 to 130 °C
7 | Cc1cccc(-c2nc3ccc(OCCN(C)C)cc3n2Cc2ccccc2C(F)(F)F)c1 | 93 °C
8 | Cc1cc(Cl)ccc1N=c1scc(-c2ccc(Cl)c(S(=O)(=O)N(C)C)c2)n1C | 137 to 141 °C
9 | CN1C(=O)c2cccc(C(F)(F)F)c2Sc2ccccc21 | 139 to 141 °C
10 | COc1cc2c(cc1OC)CN(Cc1ccc(OC(=O)N(C)C)c(OC)c1)CC2 | 126 to 128 °C
11 | O=C1OC2CCC1CC2 | 125 to 126 °C
12 | CC(=O)Nc1ccc(S(=O)(=O)Nn2cc(-c3ccccc3)c3ccccc32)cc1 | 190 to 193 °C
13 | CCOC(=O)c1ncn2c1COc1ccccc1-2 | 135 to 137 °C
14 | Nc1nc(N)c2cc(Sc3ccc(Cl)c(Cl)c3)ccc2n1 | 232 to 234 °C
15 | COc1cc(OC)c2c(C)c(C(C)=O)c(=O)oc2c1 | 166 to 167 °C
16 | COP(=O)(Cc1c2ccccc2cc2ccccc12)OC | 152 to 153 °C
17 | c1ccc(COc2ccccc2OCCNCCCNc2ncccn2)cc1 | 90.1 °C
18 | OCCn1cc(-c2ccc3ncn(Cc4ccc5ncccc5c4)c3n2)cn1 | 160 to 163 °C
19 | C=CCNc1c([N+](=O)[O-])ccc(Oc2ccc(C#N)cc2)c1Cl | 85 to 87 °C
20 | Clc1nc2ccccc2nc1OCCOc1ccccc1 | 99.5 to 102 °C
21 | CCC(CO)Nc1cc(C)nc(Oc2c(C)cc(Cl)cc2C)c1C(=O)OC (configuration not stated) | 122 to 124 °C
22 | O=C(NCCCl)NC(c1cccc(C(F)(F)F)c1)C(F)(F)F (configuration not stated) | 124 to 128 °C
23 | CCNC(=S)NNC(=O)C(F)(F)F | 170 °C
24 | Cc1ccc(Oc2c(C)cc(N)c(C)c2Cl)c(C)c1 | 86 to 88 °C
25 | COC(=O)c1c(OC)cc2oc(C)cc(=O)c2c1OC | 188 °C

Row | SMILES | melting point
26 | Nc1ccc(F)c(-c2ccccn2)c1F | 71 to 73 °C
27 | C/C(=C/CO)c1cc2c(cc1O)C(C)(C)CCC2(C)C | 144 to 145 °C
28 | CCOC(=O)c1c(Cl)c2cccnc2n(Cc2ccccc2)c1=O | 109 °C
29 | O=C(c1cc(O)c(O)c([N+](=O)[O-])c1)c1cccs1 | 155 to 157 °C
30 | CSC1=Nc2cccnc2Nc2cscc21 | 138 to 140 °C
31 | CCOC(=O)C(=NOC)C1=CSc2ccccc2S1 | 78 to 81 °C
32 | COc1cc(OC2OC(CO)C(O)C(O)C2O)ccc1C=Cc1cc(C=Cc2ccc3cc[nH]c3c2)n[nH]1 (configuration not stated) | 194 to 199 °C
33 | Fc1ccc(C(c2ccccc2)(c2ccccc2F)n2ccnc2)cc1 (configuration not stated) | 164 to 167 °C
34 | O=C(/C=C/C=C(c1ccccc1)c1ccccc1)Oc1ccc([N+](=O)[O-])cc1 | 113 to 115 °C
35 | COC(=O)c1ccc(Sc2cccc(OCCCCl)c2)cc1 | 47 to 49 °C
36 | COC(=O)COc1ccc(OC/C=C(/c2ccc(Cl)cc2)c2ccc(I)cc2)cc1C | 89 to 92 °C
37 | O=C(O)C(=O)CC(=O)c1cccn1CCc1ccccc1 | 168 to 170 °C
38 | CCN(c1nc(C)cc(C)n1)c1ccc(CC=NOC)cc1SC | 106 to 108 °C
39 | O=[N+]([O-])c1cc(-c2nsc(C(F)(F)F)c2Cl)c(Cl)cc1Cl | 104 to 106 °C
40 | CC(O)CC(=O)NCCN (configuration not stated) | 71 to 73 °C
41 | Cc1nc(C2OC(CO)C(O)C2O)c(N)nc1OCc1ccccc1 (configuration not stated) | 152 to 153 °C
42 | COc1cc(C(=O)c2ccc([N+](=O)[O-])cc2)c(CC(=O)O)cc1Br | 189 to 192 °C
43 | COC(=O)C(Oc1ccc(Cl)cc1)c1ccc(S(=O)c2ccc(Cl)cc2)cc1 (configuration not stated) | 134 to 144 °C
44 | Oc1cccc2c1CC[C@H]1[C@@H]2CCN1CCC1CCCCC1 | 130 to 133 °C
45 | CCc1cc(OCc2ccc(-c3ccccc3-c3nnn(C(c4ccccc4)(c4ccccc4)c4ccccc4)n3)cc2)c2c(n1)CCN(C)C2 | 143 to 144 °C
46 | Cc1[nH]c(=O)[nH]c1C(=O)CC(C)C | 232 to 233 °C
47 | COc1nc2cc(F)ccc2nc1Cl | 93 to 95 °C
48 | CN(C)c1cccc(C(=O)COc2cccc(Cl)c2)c1 | 70 to 72 °C
49 | COC(=O)C1=C(C)NC(C)=C(C(=O)OC)C1c1ccccc1F | 206 to 208 °C

Continued, values first:

Row | melting point | SMILES
50 | 170 °C | CC12CC(=O)C3C(CCC4CC(=O)CCC43C)C1CCC2C(=O)CBr (configuration not stated)
51 | 106 to 108 °C | CC(O)(CCN1CCOCC1)c1ccc(-c2ccc(Cl)cc2)cc1 (configuration not stated)
52 | 166 to 167 °C | CC(C)c1nn(-c2ccc(C(F)(F)F)cn2)cc1CCCOc1cc(CCC(=O)O)n(C2CCCCC2)n1
53 | 197 °C | CC(C(=O)N1c2ccccc2N(C)C(=O)c2cnc(-c3ccccc3)nc21)N1CCNCC1 (configuration not stated)
54 | 193 to 196 °C | COc1cc(Nc2c(C#N)cnc3cc(OCC4CCCCO4)c(OC)cc23)c(Cl)cc1Cl (configuration not stated)
55 | 225 to 227 °C | COc1c(N2CC[C@@H](C(C)(C)N)C2)c(F)cc2c(=O)c(C(=O)O)cn(C3CC3)c12
56 | 208 to 210 °C | Cc1nc2c(N)nc3c(c2n1CCCCS(=O)(=O)C(C)(C)C)CCCC3
57 | 137 °C | NS(=O)(=O)NC(=O)N1C[C@H](NC(=O)Cc2ccccc2)C1=O
58 | 119 °C | CS(=O)(=O)c1ccc(C(=O)C2C(=O)CCCC2=O)c(Cl)c1C1=NOC2OCCC12 (configuration not stated)
59 | 122 to 123 °C | CN(C)S(=O)(=O)Oc1c(Cl)cc(C(C)(C)C)cc1CNC(=O)OC(C)(C)C
60 | 165 °C | CCCc1cc2ccccn2c1C(=O)c1ccc(O)c(Cl)c1
61 | 180 to 182 °C | CN1C(=O)n2c(nc3ccccc32)NC12CCCC2
62 | 198 to 200 °C | CC(=O)Nc1ccc(C(=O)N2CCOCC2)cc1N
63 | 110 to 112 °C | Cc1ccc(-c2nn(C(C)(C)C(=O)N(C)C)cc2C)c(C)c1
64 | 138 °C | CC(C)C(C)CNC(=O)c1ccc2c(c1)N(C(C)CN1CCCC1)c1ccccc1S2 (configuration not stated)
65 | 166 to 168 °C | N#CCCn1nc2ccc(Cl)nn2c1=O
66 | 155 °C | O=S(=O)(c1ccc(Nc2nccc(Nc3ccc(F)cc3)n2)cc1)N(CCN1CCCC1)C1CCC2(CC1)OCCO2
67 | 125 °C | COc1ccc(S(C)(=O)=O)cc1C(=O)NCC1CCCN1C12CCC(CC1)C2 (configuration not stated)
68 | 59.4 to 60.5 °C | COC(=O)C(CCCCCCCCCCCCC(C(=O)O)C1CC1)C1CC1 (configuration not stated)
69 | 114 to 116 °C | NCCCCNC(=O)N1c2ccccc2C=Cc2ccccc21
70 | 120 to 122 °C | CCC(O)c1cc(C(=O)OC)c(NC(C)=O)cc1C(F)(F)F (configuration not stated)
71 | 161 to 163 °C | O=C(NN1CCCNC1=O)OCc1ccccc1
72 | 140 to 143 °C | CN(CCN1CCNC1=C(C#N)C#N)Cc1ccc(CN2CCCCC2)o1
73 | 191 °C | NCc1cn(CCC(=O)O)c(=S)n1[C@H]1CCc2c(F)cc(F)cc2C1
74 | 178 °C | CCCCc1nc2c(n1Cc1ccc(-c3ccccc3S(=O)(=O)NC(=O)NCCC)cc1)C(=NO)CCS2
75 | 157 °C | COc1c(C2CCN(CCCCNC(=O)c3oc(-c4ccc(C#N)cc4)nc3C)CC2)ccc2c1CCCC2
76 | 103 to 106 °C | CCOC(=O)c1ccsc1NC(=O)NCCN1CCN(c2ccc(OC)cc2)CC1

Row | melting point | SMILES
77 | 140 to 145 °C | Cc1ccc(S(=O)C(C(=O)OC(C)(C)C)C(O)CC(OC2CCCCO2)c2ccc(Oc3ccccc3)cc2)cc1 (configuration not stated)
78 | 85 to 96 °C | O=C(O)C1CCc2ccccc2N1C(=O)CS (configuration not stated)
79 | 159 to 162 °C | CC(C)(C)CC(C)(C)Nc1nc(Cl)nc(N2CC3CCC(CC3)C2)n1
80 | 156 to 158 °C | CON(C)C(=O)c1cc(C)c(C(c2cc(F)ccc2F)S(=O)(=O)c2ccc(F)cc2)cn1 (configuration not stated)
81 | 207 to 209 °C | CN1CCC(C2(O)c3ccc(F)cc3Sc3ccc(F)cc32)CC1 (configuration not stated)
82 | 56 to 57 °C | CCOC(=O)c1ccccc1C(=O)c1ccc2c(c1)C(C)(C)C(C)C2(C)C (configuration not stated)
83 | 93 to 96 °C | COC(=O)c1nc2ccc(NCCCN3CCC(OC(c4ccccc4)c4ccccc4)CC3)nn2n1
84 | 99 to 101 °C | O=C(SCCC(=O)N1c2ccccc2CCC1C(=O)O)c1ccccc1 (configuration not stated)
85 | 98 to 100 °C | CC(O)c1ccc(CCNS(=O)(=O)c2ccccc2)cc1 (configuration not stated)
86 | 46 to 50 °C | CC1(C)CCC(C)(C)c2cc([N+](=O)[O-])ccc21
87 | 46 to 48 °C | CCCCCCCCCC=C1OC(=O)N(CCCCSc2cccc3nccn23)C1=O
88 | 61 to 62 °C | O=C1C(=Cc2ccsc2)CCc2cc(OCCn3ccnc3)ccc21
89 | 168 to 169 °C | CC(C)C(=C=O)NC(=O)Nc1ccc([N+](=O)[O-])cc1O
90 | 220 to 224 °C | CCCCCCCCCCCCCCCCOC[C@@H]1OCCC[C@H]1OP(=O)([O-])OCC[N+](C)(C)C (relative stereo)
91 | 114 to 115 °C | CCCCCCCCCCCCS(=O)(=O)C(C#N)=C1C=C(N2CCCC2)CC(C)(C)C1
92 | 93 to 105 °C | CC1(C)Oc2ccc(C#N)cc2C(Oc2cccnn2)C1(C)O (configuration not stated)
93 | 139 to 141 °C | CCOCc1nc2c(N)nc(C)cc2n1NC(C)C
94 | 151 to 153 °C | CCc1nn(C2CCCC2)c2cc(C(=O)NCCC(=O)O)ccc12
95 | 157 to 159 °C | CS(=O)(=O)c1ncc(F)c(N)n1
96 | 70 to 71 °C | CCN(CC)[C@@H]1C(=O)N(C)[C@H]1c1ccccc1 (relative stereo)
97 | > 300 °C | CCn1ncc2c1ncc1c(NC)nc3ncnn3c12
98 | 209 to 210 °C | CC1(C)CCC(C)(C)c2c1ccc(C=Nc1ccc(C(=O)O)c(O)c1)c2N
99 | 60 to 62 °C | CCOC(=O)CC1(c2ccc(OC)c(OC)c2)CNC(=O)C1 (configuration not stated)
100 | 170 to 171 °C | CCOc1nc(=O)n(C(C)C)c(=O)[nH]1
101 | 206 to 207 °C | CCN(CC)C(=O)Oc1nc(C)c2cc(OC)c(OC)cc2c1N
102 | 171 to 172 °C | CCCCC(=O)c1c(-c2ccc3c(Br)c(O)ccc3c2)oc2ccccc12
